Results reported in paper PMC11124387, “A Reliable Multifaceted Solution against Foodborne Viral Infections: The Case of RiLK1 Decapeptide” (Molecules, 2024).
Several values for one entry are separate records, joined by “and”; a condition that tells them apart may be missing. Identical values can stand only once. Like-named read-outs stand apart in the source and are kept apart here. Where a SMILES comes first, the peptide text is derived from it.

Legend:
[1] = test system: Murine norovirus strain 1 (MNV-1); assay: Cell pre-treatment assay, MNV-1; type: cell-based; conditions: cell pre-treatment: cells with peptide 80 µM 1 h 37 °C, peptide removed, then virus 1 h 37 °C, mean ± SD
Protocol: (§1) Four sets of experiments were performed to suppose the effect of RiLK1 and RiLK3 on HAV and MNV-1 [29]. To this aim, 80 µM solutions of the two peptides and HAV and MNV-1 suspensions at a final concentration of 4.7 ± 0.2 log TCID50/mL and 4.5 ± 0.2 log TCID50/mL, respectively, were used in the following experiments: • i) A virus pre-treatment assay to assess the direct interaction between the virus and peptide: the incubation of the peptide with viral suspension for 1 h at room temperature was carried out, followed by its incubation on cells for 1 h at 37 °C. Then, cell monolayers were washed twice with PBS and incubated with 500 µL DMEM/MEM supplemented with 2% of FBS to determine the TCID50/mL. • ii) A cell pre-treatment assay to assess the interaction between the peptide and cells before the viral infection: cell monolayers were preincubated with 100 µL of peptide solution for 1 h at 37 °C, followed by the removal of the peptide, addition to cells of viral suspensions for 1 h at 37 °C, washing step, and culture with 2% FBS DMEM/MEM. • iii) An attachment assay to assess the possible action of the peptide at the stage of virus attachment to cells: cell monolayers were incubated with 100 µL of a suspension containing both the peptide and virus and were incubated for 1 h at 4 °C. Subsequently, the cell monolayers were washed with PBS and incubated for 1 h at 37 °C with a culture medium followed by a washing step and the addition of culture with 2% FBS DMEM/MEM. • iv) An entry assay to assess the possible action of the peptide at the stage of virus internalization into cells: cell monolayers were incubated with 100 µL of the viral suspension for 1 h at 4 °C, followed by the addition of the peptide and incubation for 1 h at 37 °C. Cells were then washed with PBS, and 2% FBS DMEM/MEM was finally added.
Untreated viral suspensions and peptide solutions, incubated at the same conditions, were used as controls.
(§2) For each treatment, the average and standard deviation of the triplicate analyses were calculated. The virucidal effects of AMPs was assessed by calculating the log reduction value (LRV), i.e., the difference between the infectious titer (log-transformed) of untreated versus treated samples. The statistical significance of differences between treated and untreated samples was determined through one-way analysis of variance (ANOVA) with Bonferroni post hoc comparisons, with a significance level of p < 0.05 (GraphPad Prism v9.5.0, software San Diego, CA, USA).

[2] = test system: Hepatitis A virus (HAV) strain HM-175; assay: Virus pre-treatment assay, HAV; type: cell-based; conditions: virus pre-treatment: peptide 80 µM with virus 1 h at RT, mean ± SD; for Viral Titre: then on Frp3 cells 1 h 37 °C
Protocol: as §1, with “Subsequently, the cell monolayers were washed with PBS and incubated for 1 h at 37 °C with a culture medium followed by a washing step and the addition of culture with 2% FBS DMEM/MEM. • iv) An entry assay to assess the possible action of the peptide at the stage of virus internalization into cells: cell monolayers were incubated with 100 µL of the viral suspension for 1 h at 4 °C, followed by the addition of the peptide and incubation for 1 h at 37 °C. Cells were then washed with PBS, and 2% FBS DMEM/MEM was finally added.” left out
as §2

[3] = test system: Hepatitis A virus (HAV) strain HM-175; conditions: cited from earlier work; for LRV (log reduction value) / Viral Titre after Treatment: RT (20 ± 2 °C), mean ± SD, ref [46] (table footnote; text b35 cites [45])
Description: Table 2 In vitro effect of peptides on HAV. | column: Viral Titre after Treatment (logTCID50/mL ± SD) / RT; LRV (logTCID50/mL ± SD) / RT || In a previous work, the antiviral effects of RiLK1 and RiLK3 were already investigated against hepatitis A virus (HAV) following treatment at room temperature, and the obtained results are reported in Table 2. Briefly, RiLK1 was able to reduce HAV infectivity by more than 1 log in comparison with the untreated virus, displaying a log reduction value (LRV) of 1.4 at 80 μM and 1.1 at 40 μM concentration. […] Therefore, based on these preliminary results, further insights into the virucidal activity ...

[4] = test system: Murine norovirus strain 1 (MNV-1); type: cell-based; conditions: for Viral Titre after Treatment: titration on RAW 264.7 cells; for Viral Titre after Treatment / LRV (log reduction value): mean ± SD, triplicate; for virucidal activity toward MNV-1 (in words): 40 and 80 µM, 4 °C and RT
Description: (§3) Murine norovirus strain 1 (MNV-1) was used as a surrogate for human norovirus (NoV). The virus was replicated in RAW 264.7 cells (murine macrophage cell line) cultured in Dulbecco’s modified Eagle’s medium (DMEM) supplemented with 1% glutamine, 1% non-essential amino acids, and 2% fetal bovine serum (FBS). Hepatitis A virus (HAV) strain HM-175 was replicated in Frp3 cells (non-human primate cell line derived from fetal kidney) cultured in minimum essential medium (MEM) with Earle’s salts supplemented with 1% glutamine, 2% non-essential amino acids, and 2% FBS. Both viruses were incubated in 5% CO2 at 37 °C. All cell culture media were provided by EuroClone (Milan, Italy). The viral suspensions were prepared by freeze and thaw lysis (1 cycle for MNV-1 and 3 cycles for HAV) of infected monolayers, clarified using low-speed centrifugation (800× g) to remove residual cell debris, then divided in aliquots, and stored at −80 °C until use.
(§4) Solutions 40 µM and 80 µM of each peptide of the panel (RiLK1, RiLK3, RiLK30, 1018-K6, MTP1, and AVP2) were chosen for the virucidal tests. HAV and MNV-1 were assayed at a concentration of 4.7 ± 0.2 log TCID50/mL and 4.5 ± 0.2 log TCID50/mL, respectively. The suspensions containing the peptides and viruses were incubated for 1 h at room temperature (RT,20 ± 2 °C) and 4 °C. These temperatures were chosen to simulate the use of sanitizing solutions in food production/processing environments. Residual viral infectivity was evaluated by titration (TCID50/mL) on Frp3 cells for HAV and on RAW 264.7 cells for MNV-1. Untreated HAV and MNV-1 suspensions and 40 µM and 80 µM AMP solutions, incubated at the same conditions, were used as controls. Each treatment condition was assayed in triplicate. For titration, 100 µL of serial tenfold dilutions of each sample were assayed in 24-well tissue culture plates containing 24–48 h cell monolayers and incubated for 1 h in 5% CO2 at 37 °C. After that, the wells were washed twice with 200 µL of PBS, and 500 µL of DMEM/MEM, supplemented with 2% of FBS, were was added to each well; MNV-1 and HAV incubations were carried for up to 6 days and 14 days, respectively, in 5% CO2 at 37 °C with daily visual inspection to determine the cytopathic effect. The virucidal efficacy of AMPs was estimated by comparing the titers of treated and untreated viral suspensions.
as §2

[5] = test system: Hepatitis A virus (HAV) strain HM-175; assay: Virucidal effect of peptides on HAV (residual infectivity by TCID50 titration on Frp3 cells); type: cell-based; conditions: for Viral Titre after Treatment: titration on Frp3 cells; for Viral Titre after Treatment / LRV (log reduction value): mean ± SD, triplicate
Description: as §3, §4, §2

[6] = MNV-1 4.5 ± 0.2 log TCID50/mL + peptide 80 µM, 1 h at 4 °C
[7] = MNV-1 + peptide 40 µM, 1 h at 4 °C
[8] = MNV-1 + peptide 40 µM, 1 h at RT (20 ± 2 °C)
[9] = MNV-1 + peptide 80 µM, 1 h at 4 °C
[10] = MNV-1 + peptide 80 µM, 1 h at RT (20 ± 2 °C)
[11] = maximum reduction, corresponding to the highest LRV
[12] = HAV 4.7 ± 0.2 log TCID50/mL + peptide 80 µM, 1 h at 4 °C
[13] = HAV + peptide 40 µM, 1 h at 4 °C
[14] = HAV + peptide 40 µM, 1 h at 4 °C, untreated minus treated titre
[15] = HAV + peptide 80 µM, 1 h at 4 °C, untreated minus treated titre
[16] = HAV + peptide 40 µM, 1 h at RT (20 ± 2 °C)
[17] = HAV + peptide 80 µM, 1 h at RT (20 ± 2 °C)

Row | Compound | LRV [1] | Viral Titre [1] [logTCID50/mL] | Viral Titre [2] [logTCID50/mL] | LRV (log reduction value) ([3]; HAV + peptide 40 µM) | Viral Titre after Treatment ([3]; HAV + peptide 40 µM) | LRV (log reduction value) ([3]; HAV + peptide 80 µM) | Viral Titre after Treatment ([3]; HAV + peptide 80 µM) | Viral Titre after Treatment [4, 6] [logTCID50/mL] | LRV (log reduction value) [4, 7] [logTCID50/mL] | Viral Titre after Treatment [4, 7] [logTCID50/mL] | LRV (log reduction value) [4, 8] [logTCID50/mL] | Viral Titre after Treatment [4, 8] [logTCID50/mL] | LRV (log reduction value) [4, 9] [logTCID50/mL] | LRV (log reduction value) [4, 10] [logTCID50/mL] | Viral Titre after Treatment [4, 10] [logTCID50/mL] | Viral Titre after Treatment [5, 12] [logTCID50/mL] | Viral Titre after Treatment [5, 13] [logTCID50/mL] | LRV (log reduction value) [5, 14] [logTCID50/mL] | LRV (log reduction value) [5, 15] [logTCID50/mL] | virucidal activity toward MNV-1 (in words) [4] | other results
1 | CC[C@H](C)[C@H](NC(=O)[C@H](CCCNC(=N)N)NC(=O)[C@@H](NC(=O)[C@H](Cc1c[nH]c2ccccc12)NC(=O)[C@H](CCCCN)NC(=O)[C@H](CC(C)C)NC(=O)[C@@H](N)CCCNC(=N)N)C(C)C)C(=O)N[C@@H](Cc1c[nH]c2ccccc12)C(=O)N[C@@H](CCCNC(=N)N)C(=O)N[C@@H](CCCNC(=N)N)C(N)=O [RiLK1] (H-RLKWVRIWRR-NH2; N-terminus assumed) | 0.3 ± 0.4 logTCID50/mL | 4.2 ± 0.2 | 3.3 ± 0.2 | 1.1 logTCID50/mL and 1.1 ± 0.3 *^,a logTCID50/mL | 3.6 ± 0.1 *^,a logTCID50/mL | 1.4 logTCID50/mL and 1.4 ± 0.4 *^,a logTCID50/mL | 3.3 ± 0.2 *^,a logTCID50/mL | 4.3 ± 0.2 | 0.2 ± 0.4 | 4.3 ± 0.2 | 1.0 ± 0.4 | 3.5 ± 0.2 | 0.2 ± 0.4 | 1.2 ± 0.4 | 3.3 ± 0.2 | 3.6 ± 0.1 | 3.9 ± 0.2 | 0.8 ± 0.4 | 1.1 ± 0.3 |  | reduction of HAV infectivity in comparison with the untreated virus ([3]; room temperature, ref [45]): more than 1 log; reduction of MNV-1 infectivity [4, 11]: up to 94.1%; decrease of HAV infectious titer [5, 11]: up to 96.7%
2 | KLRWVKIWKK-NH2 [RiLK30, newly designed RiLK1 derivative, Arg residues exchanged with Lys and Lys3 with Arg] |  |  |  |  |  |  |  | 3.9 ± 0.2 | 0.2 ± 0.5 | 4.3 ± 0.3 | 0 ± 0.4 | 4.5 ± 0.2 | 0.6 ± 0.4 | 0 ± 0.3 | 4.5 ± 0.1 | 4.3 ± 0.2 | 4.3 ± 0.2 | 0.4 ± 0.4 | 0.4 ± 0.4 | no virucidal activity | virucidal activity toward HAV (in words) ([5]; 40 and 80 µM, 4 °C and RT): no virucidal activity; LRV (log reduction value) [5, 16]: 0.6 ± 0.4 logTCID50/mL; Viral Titre after Treatment [5, 16]: 4.1 ± 0.2 logTCID50/mL; LRV (log reduction value) [5, 17]: 0.6 ± 0.4 logTCID50/mL; Viral Titre after Treatment [5, 17]: 4.1 ± 0.2 logTCID50/mL
3 | RLRWVRIWRR-NH2 [RiLK3, RiLK1 analog differing by one amino acid (Lys replaced with Arg), C-terminally amidated] | 1.0 logTCID50/mL and 1.0 ± 0.3 logTCID50/mL | 3.5 ± 0.1 | 4.4 ± 0.1 | 0.3 ± 0.3 ^a logTCID50/mL | 4.4 ± 0.1 ^a logTCID50/mL | 0.3 ± 0.3 ^a logTCID50/mL | 4.4 ± 0.1 ^a logTCID50/mL | 4.5 ± 0.2 | 0 ± 0.3 | 4.5 ± 0.1 | 0 ± 0.4 | 4.5 ± 0.2 | 0 ± 0.4 | 0 ± 0.3 | 4.5 ± 0.1 | 4.6 ± 0.1 | 4.6 ± 0.3 | 0.1 ± 0.2 | 0.1 ± 0.3 | not effective | LRV ([2]; then on cells 1 h 37 °C): 0.3 ± 0.3 logTCID50/mL; inhibition of HAV infection (in words) ([3]; 40 and 80 µM, room temperature, ref [45]): unable to inhibit HAV infection
